# What was measured:
# Details in all cases: compound at 10 μM
# Human μ-opioid (MOP) = target: T1, Human μ-opioid (MOP) (Homo sapiens, UniProt P35372); assay: Radioligand binding, human μ-opioid (MOP) membranes, FlashPlate, [3H]-Naloxone
# T1 construct: purchased Perkin Elmer Biosignal
# Summary of the method: (§1)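 Cloned human receptor membranes were coated onto FlashPlate wells and incubated with radioligand and compound (added from a 0.5 mM DMSO daughter plate) for 1 hour at room temperature in the dark. Scintillation counting gave percent inhibition, with DMSO defining total and reference ligand defining non-specific binding.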
# Human neurokinin (NK1) = target: T2, Human neurokinin (NK1) (Homo sapiens, UniProt P25103); assay: Radioligand binding, human neurokinin NK1 membranes, filtration, [125I]-Substance P
# T2 construct: purchased Perkin Elmer Biosignal
# Summary of the method: (§2)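 Percent inhibition of radioligand binding measured on recombinant human membranes: NK1 with [125I]-Substance P, KOP with [3H]-Diprenorphine. Incubation 1 h at room temperature, then harvest onto 0.3% PEI-soaked filters, cold Tris-HCl pH 7.4 washes and scintillation counting; non-specific binding from reference ligand wells.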
# [1] = target: T3, Human neuropeptide Y (NPY-Y1) (Homo sapiens, UniProt P25929); assay: Radioligand binding, human neuropeptide Y NPY-Y1 membranes, FlashPlate, [125I]-PYY
# T3 construct: purchased Perkin Elmer Biosignal
# T3 sequence (P25929 1-384): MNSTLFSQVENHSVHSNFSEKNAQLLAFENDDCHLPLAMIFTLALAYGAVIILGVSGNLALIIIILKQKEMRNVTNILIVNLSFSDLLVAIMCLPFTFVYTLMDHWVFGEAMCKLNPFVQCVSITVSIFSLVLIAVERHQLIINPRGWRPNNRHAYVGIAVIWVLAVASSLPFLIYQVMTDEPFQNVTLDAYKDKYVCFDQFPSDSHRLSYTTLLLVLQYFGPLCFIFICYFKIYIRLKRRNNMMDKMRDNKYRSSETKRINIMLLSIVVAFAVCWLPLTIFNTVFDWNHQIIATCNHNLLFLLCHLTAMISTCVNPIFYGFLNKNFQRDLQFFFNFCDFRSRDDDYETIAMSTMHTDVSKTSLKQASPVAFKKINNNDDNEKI
# Summary of the method: as §1
# Human κ-Opioid (KOP) = target: T4, Human κ-Opioid (KOP) (Homo sapiens, UniProt P41145); assay: Radioligand binding, human κ-opioid (KOP) membranes, filtration, [3H]-Diprenorphine
# T4 construct: purchased Perkin Elmer Biosignal
# Summary of the method: as §2
# Mouse urotensin (mUR2) = target: T5, Mouse urotensin (mUR2) (Mus musculus, UniProt Q8VIH9); assay: Radioligand binding, mouse urotensin mUR2 membranes, FlashPlate, [125I]-Urotensin II
# T5 construct: purchased Perkin Elmer Biosignal
# T5 sequence (Q8VIH9 1-385): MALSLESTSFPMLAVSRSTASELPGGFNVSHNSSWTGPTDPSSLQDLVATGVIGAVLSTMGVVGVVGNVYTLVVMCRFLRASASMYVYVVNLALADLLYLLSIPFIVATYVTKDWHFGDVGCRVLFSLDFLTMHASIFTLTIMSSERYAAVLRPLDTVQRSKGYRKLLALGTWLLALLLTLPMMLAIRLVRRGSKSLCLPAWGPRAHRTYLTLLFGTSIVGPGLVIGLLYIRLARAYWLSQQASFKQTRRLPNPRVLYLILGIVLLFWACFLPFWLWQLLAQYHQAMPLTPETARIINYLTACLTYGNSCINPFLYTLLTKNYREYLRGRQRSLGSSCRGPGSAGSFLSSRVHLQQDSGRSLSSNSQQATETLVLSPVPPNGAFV
# Summary of the method: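 Cloned mouse urotensin (mUR2) receptor membranes from Perkin Elmer Biosignal were immobilized in FlashPlate microplates using a proprietary coating. Each well got 19.5 μl buffer, then 0.5 μl of DMSO, reference ligand, or compound. Adding 5 μl of [125I]-Urotensin II, diluted to 5× final concentration in binding buffer, started binding. Plates were sealed with TopSeal-A and incubated 1 hour at room temperature in the dark. Wells were counted for 30 seconds each on a TopCount after a 60-second delay, and percentage inhibition was calculated.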
# Human Melanocortin (MC4) = target: T6, Human Melanocortin (MC4) (Homo sapiens, UniProt P32245); assay: Radioligand binding, human melanocortin MC4 membranes, FlashPlate, [125I]-NDP-αMSH
# T6 construct: purchased Perkin Elmer Biosignal
# Summary of the method: as §1
# Human melanocortin (MC5) = target: T7, Human melanocortin (MC5) (Homo sapiens, UniProt P33032); assay: Radioligand binding, human melanocortin MC5 membranes, FlashPlate, [125I]-NDP-αMSH
# T7 construct: purchased Perkin Elmer Biosignal
# Summary of the method: as §1
# Human δ-opioid (DOP) = target: T8, Human δ-opioid (DOP) (Homo sapiens, UniProt P41143); assay: Radioligand binding, human δ-opioid (DOP) membranes, FlashPlate, [3H]-Bremazocine
# T8 construct: purchased Perkin Elmer Biosignal
# Summary of the method: as §1
# [2] = target: T9, Human melanin-concentrating hormone (MCH1) (Homo sapiens, UniProt Q99705); assay: Radioligand binding, human melanin-concentrating hormone MCH1 membranes, FlashPlate, [125I]-S36057
# T9 construct: purchased Perkin Elmer Biosignal
# Summary of the method: as §1
# Human Melanocortin (MC3) = target: T10, Human Melanocortin (MC3) (Homo sapiens, UniProt P41968); assay: Radioligand binding, human melanocortin MC3 membranes, FlashPlate, [125I]-NDP-αMSH
# T10 construct: purchased Perkin Elmer Biosignal
# Summary of the method: as §1
# Human opioid (ORL1) = target: T11, Human opioid (ORL1) (Homo sapiens, UniProt P41146); assay: Radioligand binding, human opioid ORL1 membranes, FlashPlate, [125I]-Nociceptin
# T11 construct: purchased Perkin Elmer Biosignal
# Summary of the method: as §1
# T6 sequence (P32245 whole entry): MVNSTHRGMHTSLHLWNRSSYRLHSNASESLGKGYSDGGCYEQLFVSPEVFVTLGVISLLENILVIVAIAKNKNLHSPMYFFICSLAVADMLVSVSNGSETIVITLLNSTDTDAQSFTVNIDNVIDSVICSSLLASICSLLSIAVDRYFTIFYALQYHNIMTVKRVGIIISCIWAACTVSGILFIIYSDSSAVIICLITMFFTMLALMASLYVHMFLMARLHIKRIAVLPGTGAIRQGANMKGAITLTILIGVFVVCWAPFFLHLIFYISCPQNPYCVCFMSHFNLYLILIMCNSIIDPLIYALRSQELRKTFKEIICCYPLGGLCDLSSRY
# T10 sequence (P41968 whole entry): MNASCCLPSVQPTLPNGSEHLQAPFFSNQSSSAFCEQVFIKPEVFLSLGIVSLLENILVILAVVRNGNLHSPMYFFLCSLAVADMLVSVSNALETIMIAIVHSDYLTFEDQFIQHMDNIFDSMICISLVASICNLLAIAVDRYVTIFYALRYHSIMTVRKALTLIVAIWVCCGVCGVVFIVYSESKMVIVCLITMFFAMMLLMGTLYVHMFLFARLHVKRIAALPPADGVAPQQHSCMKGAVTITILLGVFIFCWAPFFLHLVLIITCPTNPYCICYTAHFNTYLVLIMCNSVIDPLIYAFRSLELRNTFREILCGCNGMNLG
# T8 sequence (P41143 whole entry): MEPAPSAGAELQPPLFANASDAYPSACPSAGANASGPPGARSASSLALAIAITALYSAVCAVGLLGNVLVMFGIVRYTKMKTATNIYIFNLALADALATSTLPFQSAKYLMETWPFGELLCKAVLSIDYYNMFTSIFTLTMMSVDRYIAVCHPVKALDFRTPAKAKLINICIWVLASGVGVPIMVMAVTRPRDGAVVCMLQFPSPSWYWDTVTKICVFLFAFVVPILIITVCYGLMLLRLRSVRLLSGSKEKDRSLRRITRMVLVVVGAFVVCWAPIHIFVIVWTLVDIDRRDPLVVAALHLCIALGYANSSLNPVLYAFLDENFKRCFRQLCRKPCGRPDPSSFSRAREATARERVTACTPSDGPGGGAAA
# T9 sequence (Q99705 whole entry): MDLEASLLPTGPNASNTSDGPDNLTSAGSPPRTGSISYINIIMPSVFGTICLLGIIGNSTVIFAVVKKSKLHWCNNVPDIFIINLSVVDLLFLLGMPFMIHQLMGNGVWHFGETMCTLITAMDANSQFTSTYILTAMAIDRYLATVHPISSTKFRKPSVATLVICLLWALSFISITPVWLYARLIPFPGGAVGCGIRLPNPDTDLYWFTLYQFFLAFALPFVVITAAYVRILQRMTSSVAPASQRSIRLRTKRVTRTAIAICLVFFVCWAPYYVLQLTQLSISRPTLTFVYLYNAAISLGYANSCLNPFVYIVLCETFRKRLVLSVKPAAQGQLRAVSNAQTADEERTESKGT
# T2 sequence (P25103 whole entry): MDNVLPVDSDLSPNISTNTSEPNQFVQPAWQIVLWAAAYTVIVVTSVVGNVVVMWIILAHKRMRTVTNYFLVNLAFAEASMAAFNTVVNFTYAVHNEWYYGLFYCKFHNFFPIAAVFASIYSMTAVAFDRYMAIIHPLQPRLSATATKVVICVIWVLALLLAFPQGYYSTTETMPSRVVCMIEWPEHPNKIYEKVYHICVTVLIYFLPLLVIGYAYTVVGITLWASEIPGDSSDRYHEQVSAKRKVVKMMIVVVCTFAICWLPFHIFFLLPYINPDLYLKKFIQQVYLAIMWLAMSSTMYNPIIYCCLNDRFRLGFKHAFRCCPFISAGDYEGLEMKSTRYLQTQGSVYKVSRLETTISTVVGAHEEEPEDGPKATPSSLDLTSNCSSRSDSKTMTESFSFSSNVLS
# T11 sequence (P41146 whole entry): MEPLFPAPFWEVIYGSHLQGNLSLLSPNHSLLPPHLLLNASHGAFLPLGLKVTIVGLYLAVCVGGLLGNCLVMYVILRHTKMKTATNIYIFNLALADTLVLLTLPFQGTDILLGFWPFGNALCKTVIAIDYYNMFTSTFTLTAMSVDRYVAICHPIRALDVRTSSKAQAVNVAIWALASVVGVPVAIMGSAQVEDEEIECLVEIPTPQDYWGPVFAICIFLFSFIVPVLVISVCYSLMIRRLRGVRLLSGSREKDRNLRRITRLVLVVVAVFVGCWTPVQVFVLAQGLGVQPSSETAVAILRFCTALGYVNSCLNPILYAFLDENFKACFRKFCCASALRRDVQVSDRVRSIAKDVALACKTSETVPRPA
# T7 sequence (P33032 whole entry): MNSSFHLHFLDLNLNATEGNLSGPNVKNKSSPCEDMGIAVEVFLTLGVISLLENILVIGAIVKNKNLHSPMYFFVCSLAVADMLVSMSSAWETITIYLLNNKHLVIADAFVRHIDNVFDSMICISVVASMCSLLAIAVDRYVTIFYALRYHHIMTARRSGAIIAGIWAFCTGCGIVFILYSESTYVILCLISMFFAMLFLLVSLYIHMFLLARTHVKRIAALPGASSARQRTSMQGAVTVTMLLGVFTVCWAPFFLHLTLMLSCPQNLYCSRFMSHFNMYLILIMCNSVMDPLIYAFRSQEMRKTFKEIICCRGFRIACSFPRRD
# T4 sequence (P41145 whole entry): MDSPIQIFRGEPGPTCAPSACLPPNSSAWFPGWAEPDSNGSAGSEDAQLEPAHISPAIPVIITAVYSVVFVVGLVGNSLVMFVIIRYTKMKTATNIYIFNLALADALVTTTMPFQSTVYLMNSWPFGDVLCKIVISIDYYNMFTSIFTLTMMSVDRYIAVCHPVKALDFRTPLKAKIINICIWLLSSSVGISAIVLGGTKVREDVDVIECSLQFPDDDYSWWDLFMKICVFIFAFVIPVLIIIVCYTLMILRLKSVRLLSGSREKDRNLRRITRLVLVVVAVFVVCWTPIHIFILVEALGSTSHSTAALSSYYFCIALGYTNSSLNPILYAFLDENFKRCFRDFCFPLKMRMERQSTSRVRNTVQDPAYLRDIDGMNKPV
# T1 sequence (P35372 whole entry): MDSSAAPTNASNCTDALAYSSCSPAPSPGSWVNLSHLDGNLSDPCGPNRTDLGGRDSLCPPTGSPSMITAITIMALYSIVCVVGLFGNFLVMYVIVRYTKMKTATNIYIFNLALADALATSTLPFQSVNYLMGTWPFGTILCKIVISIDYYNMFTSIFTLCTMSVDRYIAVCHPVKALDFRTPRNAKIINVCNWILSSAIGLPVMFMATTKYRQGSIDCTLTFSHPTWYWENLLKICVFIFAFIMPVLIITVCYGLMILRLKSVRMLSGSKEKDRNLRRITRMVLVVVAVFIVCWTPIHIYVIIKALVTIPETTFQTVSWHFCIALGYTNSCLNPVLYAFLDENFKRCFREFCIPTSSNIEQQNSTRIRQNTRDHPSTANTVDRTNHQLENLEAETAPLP
structure (smiles),measurement,setting,value
COC[C@H]1OC(OCCc2ccccc2)[C@H](NC(=O)CCCN)[C@@H](OCc2ccc(-c3ccccc3)cc2)[C@@H]1O (stereo partly shown) [compound 42],A7 radioligand binding inhibition,Human μ-opioid (MOP); human μ-opioid (MOP) membranes,− (“−” indicates less than 50% inhibition at 10 μM)
same,A8 radioligand binding inhibition,Human neurokinin (NK1); human neurokinin NK1 membranes,− (“−” indicates less than 50% inhibition at 10 μM)
same,A9 radioligand binding inhibition,[1]; human NPY-Y1 membranes,− (“−” indicates less than 50% inhibition at 10 μM)
same,A2 radioligand binding inhibition,Human κ-Opioid (KOP); human κ-opioid (KOP) membranes,− (“−” indicates less than 50% inhibition at 10 μM)
same,A11 radioligand binding inhibition,Mouse urotensin (mUR2); mouse urotensin mUR2 membranes,− (“−” indicates less than 50% inhibition at 10 μM)
same,A4 radioligand binding inhibition,Human Melanocortin (MC4); human melanocortin MC4 membranes,− (“−” indicates less than 50% inhibition at 10 μM)
same,A5 radioligand binding inhibition,Human melanocortin (MC5); human melanocortin MC5 membranes,+ (“+” indicates greater than 50% inhibition at 10 μM)
same,A1 radioligand binding inhibition,Human δ-opioid (DOP); human δ-opioid (DOP) membranes,− (“−” indicates less than 50% inhibition at 10 μM)
same,A6 radioligand binding inhibition,[2]; human MCH1 membranes,− (“−” indicates less than 50% inhibition at 10 μM)
same,A3 radioligand binding inhibition,Human Melanocortin (MC3); human melanocortin MC3 membranes,− (“−” indicates less than 50% inhibition at 10 μM)
same,A10 radioligand binding inhibition,Human opioid (ORL1); human ORL1 membranes,− (“−” indicates less than 50% inhibition at 10 μM)
N=C(N)NCCC(=O)N[C@H]1C(OCc2ccc(Cl)cc2)O[C@H](COCc2ccc3ccccc3c2)[C@@H](O)[C@@H]1OCc1ccc(Cl)cc1 (stereo partly shown) [compound 523],"A7: inhibition of radioligand binding, human μ-opioid (MOP)","Human μ-opioid (MOP); [3H]-Naloxone, 10 µM",+ (“+” indicates greater than 50% inhibition at 10 μM)
same,"A8: inhibition of radioligand binding, human neurokinin (NK1)",Human neurokinin (NK1); [125I]-Substance P,+ (“+” indicates greater than 50% inhibition at 10 μM)
same,"A9: inhibition of radioligand binding, human neuropeptide Y (NPY-Y1)","[1]; [125I]-PYY, 10 µM",− (“−” indicates less than 50% inhibition at 10 μM)
same,"A2: inhibition of radioligand binding, human κ-opioid (KOP)",Human κ-Opioid (KOP); [3H]-Diprenorphine,+ (“+” indicates greater than 50% inhibition at 10 μM)
same,"A11: inhibition of radioligand binding, mouse urotensin (mUR2)",Mouse urotensin (mUR2); [125I]-Urotensin II,− (“−” indicates less than 50% inhibition at 10 μM)
same,"A4: inhibition of radioligand binding, human melanocortin (MC4)",Human Melanocortin (MC4); [125I]-NDP-αMSH,+ (“+” indicates greater than 50% inhibition at 10 μM)
same,"A5: inhibition of radioligand binding, human melanocortin (MC5)",Human melanocortin (MC5); [125I]-NDP-αMSH,+ (“+” indicates greater than 50% inhibition at 10 μM)
same,"A1: inhibition of radioligand binding, human δ-opioid (DOP)",Human δ-opioid (DOP); [3H]-Bremazocine,− (“−” indicates less than 50% inhibition at 10 μM)
same,"A6: inhibition of radioligand binding, human melanin-concentrating hormone (MCH1)",[2]; [125I]-S36057,+ (“+” indicates greater than 50% inhibition at 10 μM)
same,"A3: inhibition of radioligand binding, human melanocortin (MC3)",Human Melanocortin (MC3); [125I]-NDP-αMSH,+ (“+” indicates greater than 50% inhibition at 10 μM)
same,"A10: inhibition of radioligand binding, human opioid (ORL1)",Human opioid (ORL1); [125I]-Nociceptin,+ (“+” indicates greater than 50% inhibition at 10 μM)
COCC1OC(OCCc2ccccc2)C(NC(=O)CNC(=N)N)C(OCc2ccccc2)C1O (stereo not shown) [compound 215],A7: inhibition of radioligand binding,"Human μ-opioid (MOP); [3H]-Naloxone, FlashPlate",− (“−” indicates less than 50% inhibition at 10 μM)
same,A8: inhibition of radioligand binding,"Human neurokinin (NK1); [125I]-Substance P, filtration",+ (“+” indicates greater than 50% inhibition at 10 μM)
same,A9: inhibition of radioligand binding,"[1]; [125I]-PYY, FlashPlate",− (“−” indicates less than 50% inhibition at 10 μM)
same,A2: inhibition of radioligand binding,"Human κ-Opioid (KOP); [3H]-Diprenorphine, filtration",− (“−” indicates less than 50% inhibition at 10 μM)
same,A11: inhibition of radioligand binding,"Mouse urotensin (mUR2); [125I]-Urotensin II, FlashPlate",− (“−” indicates less than 50% inhibition at 10 μM)
same,A4: inhibition of radioligand binding,"Human Melanocortin (MC4); [125I]-NDP-αMSH, FlashPlate",− (“−” indicates less than 50% inhibition at 10 μM)
same,A5: inhibition of radioligand binding,"Human melanocortin (MC5); [125I]-NDP-αMSH, FlashPlate",+ (“+” indicates greater than 50% inhibition at 10 μM)
same,A1: inhibition of radioligand binding,"Human δ-opioid (DOP); [3H]-Bremazocine, FlashPlate",− (“−” indicates less than 50% inhibition at 10 μM)
same,A6: inhibition of radioligand binding,"[2]; [125I]-S36057, FlashPlate",− (“−” indicates less than 50% inhibition at 10 μM)
same,A3: inhibition of radioligand binding,"Human Melanocortin (MC3); [125I]-NDP-αMSH, FlashPlate",− (“−” indicates less than 50% inhibition at 10 μM)
same,A10: inhibition of radioligand binding,"Human opioid (ORL1); [125I]-Nociceptin, FlashPlate",− (“−” indicates less than 50% inhibition at 10 μM)
CO[C@H]1[C@H](O)[C@@H](COCc2ccc3ccccc3c2)OC(OCc2ccc(Cl)cc2)[C@@H]1NC(=O)CCNC(=N)N (stereo partly shown) [compound 98],"A7 radioligand binding, percentage inhibition",Human μ-opioid (MOP); [3H]-Naloxone,− (“−” indicates less than 50% inhibition at 10 μM)
same,"A8 radioligand binding, percentage inhibition",Human neurokinin (NK1); [125I]-Substance P,+ (“+” indicates greater than 50% inhibition at 10 μM)
same,"A9 radioligand binding, percentage inhibition",[1]; [125I]-PYY,− (“−” indicates less than 50% inhibition at 10 μM)
same,"A2 radioligand binding, percentage inhibition",Human κ-Opioid (KOP); [3H]-Diprenorphine,− (“−” indicates less than 50% inhibition at 10 μM)
same,"A11 radioligand binding, percentage inhibition",Mouse urotensin (mUR2); [125I]-Urotensin II,− (“−” indicates less than 50% inhibition at 10 μM)
same,"A4 radioligand binding, percentage inhibition",Human Melanocortin (MC4); [125I]-NDP-αMSH,+ (“+” indicates greater than 50% inhibition at 10 μM)
same,"A5 radioligand binding, percentage inhibition",Human melanocortin (MC5); [125I]-NDP-αMSH,+ (“+” indicates greater than 50% inhibition at 10 μM)
same,"A1 radioligand binding, percentage inhibition",Human δ-opioid (DOP); [3H]-Bremazocine,− (“−” indicates less than 50% inhibition at 10 μM)
same,"A6 radioligand binding, percentage inhibition",[2]; [125I]-S36057,+ (“+” indicates greater than 50% inhibition at 10 μM)
same,"A3 radioligand binding, percentage inhibition",Human Melanocortin (MC3); [125I]-NDP-αMSH,− (“−” indicates less than 50% inhibition at 10 μM)
same,"A10 radioligand binding, percentage inhibition",Human opioid (ORL1); [125I]-Nociceptin,− (“−” indicates less than 50% inhibition at 10 μM)
COC[C@H]1OC(OCc2ccc3ccccc3c2)[C@H](NC(=O)CCCN)[C@@H](OCc2ccc(Cl)cc2)[C@@H]1O (stereo partly shown) [compound 340],"A7: inhibition of radioligand binding, human μ-opioid (MOP)",Human μ-opioid (MOP); [3H]-Naloxone,− (“−” indicates less than 50% inhibition at 10 μM)
same,"A8: inhibition of radioligand binding, human neurokinin (NK1)",Human neurokinin (NK1); [125I]-Substance P,+ (“+” indicates greater than 50% inhibition at 10 μM)
same,"A9: inhibition of radioligand binding, human neuropeptide Y (NPY-Y1)",[1]; [125I]-PYY,− (“−” indicates less than 50% inhibition at 10 μM)
same,"A2: inhibition of radioligand binding, human κ-opioid (KOP)",Human κ-Opioid (KOP); [3H]-Diprenorphine,− (“−” indicates less than 50% inhibition at 10 μM)
same,"A11: inhibition of radioligand binding, mouse urotensin (mUR2)",Mouse urotensin (mUR2); [125I]-Urotensin II,− (“−” indicates less than 50% inhibition at 10 μM)
same,"A4: inhibition of radioligand binding, human melanocortin (MC4)",Human Melanocortin (MC4); [125I]-NDP-αMSH,− (“−” indicates less than 50% inhibition at 10 μM)
same,"A5: inhibition of radioligand binding, human melanocortin (MC5)",Human melanocortin (MC5); [125I]-NDP-αMSH,− (“−” indicates less than 50% inhibition at 10 μM)
same,"A1: inhibition of radioligand binding, human δ-opioid (DOP)",Human δ-opioid (DOP); [3H]-Bremazocine,− (“−” indicates less than 50% inhibition at 10 μM)
same,"A6: inhibition of radioligand binding, human melanin-concentrating hormone (MCH1)",[2]; [125I]-S36057,− (“−” indicates less than 50% inhibition at 10 μM)
same,"A3: inhibition of radioligand binding, human melanocortin (MC3)",Human Melanocortin (MC3); [125I]-NDP-αMSH,− (“−” indicates less than 50% inhibition at 10 μM)
same,"A10: inhibition of radioligand binding, human opioid (ORL1)",Human opioid (ORL1); [125I]-Nociceptin,− (“−” indicates less than 50% inhibition at 10 μM)

# Source: US20080009418A1, “Selective Inhibitors” (Alchemia LTD., priority 2004, published 2008)
